Results on 21 molecules are retold here after US5753709A, “N-acyl-2 aryl cyclopropylmethylamine derivatives as melatonergics” (Bristol-Myers Squibb Company, priority 1996, dated 1998).

By IC50 is commonly meant the concentration that inhibits the measured activity by half.

The target in one experiment is T1, human melatonin receptor (human ML1A) (Homo sapiens, UniProt P48039).
T1 construct: expressed in transfected cells; host or cells: COS-1 cells (transient, pcDNAI, DEAE-dextran); membrane homogenates
T1 sequence (P48039 whole entry): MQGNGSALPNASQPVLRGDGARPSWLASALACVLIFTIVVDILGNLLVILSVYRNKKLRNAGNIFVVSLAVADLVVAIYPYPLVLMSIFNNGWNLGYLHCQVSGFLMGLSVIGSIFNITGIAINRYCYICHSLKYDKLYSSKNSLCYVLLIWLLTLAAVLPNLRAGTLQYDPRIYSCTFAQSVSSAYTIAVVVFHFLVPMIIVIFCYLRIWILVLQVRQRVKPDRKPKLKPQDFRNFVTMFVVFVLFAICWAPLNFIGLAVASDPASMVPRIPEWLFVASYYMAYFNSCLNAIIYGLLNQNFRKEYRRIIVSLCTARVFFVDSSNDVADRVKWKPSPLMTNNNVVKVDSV
Briefly: Melatonergic binding: displacement of 2-[125I]-iodomelatonin at the human melatonin receptor (human ML1A in COS-1 membranes). Conditions: Table 5; displacement of 2[125I]-Iodomelatonin (100 pM), 37° C., 1 hour. The method, then:
The melatonergic binding of the compounds of Formula I was determined by a modification of the method of Reppert, S. M. et al. (Neuron, Volume 13, pages 1177-1185, 1994). […] The reagents, membranes, and other parameters used in the assay are described below:
(a) 50 mM Tris buffer containing 12.5 mM MgCl2, and 2 mM EDTA (pH 7.4 at 37° C.).
(b) Wash buffer: 20 mM Tris base containing 2 mM MgCl2 (pH 7.4 at room temperature).
(c) 6-Chloromelatonin (10^-5 M final concentration).
(d) 2-[^125 I]-Iodomelatonin (100 pM final concentration). (Source: NEN) Membrane preparation: The cDNA (human ML1A) in pcDNAI was introduced into COS-1 cells by the DEAE-dextran method. Three days later, after media removal, the plates were washed with buffered saline; the cells removed using Hank's balanced salt solution and pelleted. The supernant was discarded and the pellets frozen. For membrane homogenates, the pellets were thawed and resuspended in TME buffer, Tris base, MgCl2, EDTA (pH 7.4 at 37° C.), and supplemented with aprotinin, leupeptin, and phenylmethylsulfonyl fluoride. The cells were homogenized and centrifuged; the resulting pellet resuspended in TME and frozen. At assay, the small aliquot was thawed on ice and resuspended in TME buffer. Incubation: 37° C. for 1 hour. Reaction is terminated by filtration.
The molecule `CCCC(=O)NC[C@@H]1C[C@H]1c1cccc(OCCC=C(C)C)c1` (relative stereo) [Example 106, (trans)-N-[[2-[3-(4-Methyl-3-penten-1-yloxy)phenyl]cycloprop-1-yl]methyl] butanamide] showed an IC50 of 5 to 40 nM.

Regarding `CCCC(=O)NC[C@@H]1C[C@H]1c1cccc(OCCCCC(C)(C)C#N)c1` (relative stereo) [Example 107], the concentration for half-maximal inhibition (IC50) was 40 to 250 nM.

`CCCC(=O)NC[C@@H]1C[C@H]1c1cccc(OCCCC(=O)OC)c1` (relative stereo) [Example 108] yielded an IC50 of 40 to 250 nM.

`CCCC(=O)NC[C@@H]1C[C@H]1c1cccc(OCCCCCc2ccccc2)c1` (relative stereo) [Example 110, (trans)-N-[[2-[3-[(5-Phenylpent-1-yl)oxy]phenyl]cycloprop-1-yl]methyl] butanamide] gave an IC50 of under 5 nM.

`CCCC(=O)NC[C@@H]1C[C@H]1c1cccc(CC)c1` (relative stereo) [Example 114, (trans)-N-[2-[(3-Ethylphenyl)cycloprop-1-yl]methyl] butanamide] displayed a half-inhibitory concentration (IC50) of 5 to 40 nM.

Take `CCCC(=O)NC[C@@H]1C[C@H]1c1cccc(OCCCCC2CCCCC2)c1` (relative stereo) [Example 116]: the IC50 was in the range of 5 to 40 nM.

On to `CCCC(=O)NC[C@@H]1C[C@H]1c1cccc(OCCCC2CCCC2)c1` (relative stereo) [Example 120, (trans)-N-[[2-[3-[(3-Cyclopentylprop-1-yl)oxy]phenyl]cycloprop-1-yl]methyl] butanamide], for which the IC50 was under 5 nM.

In the case of `CCCC(=O)NC[C@@H]1C[C@H]1c1cccc(OCCC(C)CC(C)(C)C)c1` (relative stereo) [Example 121], the IC50 is 5 to 40 nM.

`C#CC(C)=CCOc1cccc([C@@H]2C[C@H]2CNC(=O)CCC)c1` (relative stereo) [Example 122] came in with an IC50 of 5 to 40 nM.

Turning to `CCCC(=O)NC[C@@H]1C[C@H]1c1cccc(OCCc2cccc(C(F)(F)F)c2)c1` (relative stereo) [Example 123, (trans)-N-[[2-[3-[2-[3-(Trifluoromethyl)phenyl]ethoxy]phenyl]cycloprop-1-yl]methyl] butanamide], the IC50 is under 5 nM.

`CCCC(=O)NC[C@@H]1C[C@H]1c1cccc(OCCc2cccc(F)c2)c1` (relative stereo) [Example 125, (trans)-N-[[2-[3-[2-(3-Fluorophenyl)ethoxy]phenyl]cycloprop-1-yl]methyl] butanamide] yielded an IC50 of 5 to 40 nM.

As to `CCCC(=O)NC[C@@H]1C[C@H]1c1cccc(OCCCc2ccc(OC)cc2)c1` (relative stereo) [Example 127, (trans)-N-[[2-[3-[3-(4-Methoxyphenyl)propoxy]phenyl]cycloprop-1-yl]methyl]butanamide], the 50% inhibitory concentration (IC50) fell in the range of 5 to 40 nM.

In the case of `CCCC(=O)NC[C@@H]1C[C@H]1c1cccc(OCCc2ccccc2F)c1` (relative stereo) [Example 128, (trans)-N-[[2-[3-[2-(2-Fluorophenyl)ethoxy]phenyl]cycloprop-1-yl]methyl] butanamide], the concentration for half-maximal inhibition (IC50) lay within 5 to 40 nM.

The molecule `CC(C)C(=O)NC[C@@H]1C[C@H]1c1cccc(F)c1` (single isomer, unassigned) [Example 65, (-)-(trans)-N-[[2-(3-Fluorophenyl)cycloprop-1-yl]methyl]-2-methylpropanamide] displayed an IC50 of 250 to 600 nM.

Turning to `CCCC(=O)NC[C@@H]1C[C@H]1c1cccc(OCCCc2cccc(OC)c2)c1` (single isomer, unassigned) [Example 84, (-)-(trans)-N-[[2-[3-[3-(3-Methoxyphenyl)propoxy]phenyl]cycloprop-1-yl)methyl] butanamide], the half-maximal inhibitory concentration (IC50) is under 5 nM.

In turn, `CCCC(=O)NC[C@@H]1C[C@H]1c1ccccc1` (single isomer, unassigned) [Example 90, (-)-(trans)-N-[(2-Phenylcycloprop-1-yl)methyl] butanamide] showed a 50% inhibitory concentration (IC50) of 40 to 250 nM.

`CCCC(=O)NC[C@@H]1C[C@H]1c1cc(OCCCc2cccc(OC)c2)ccc1I` (single isomer, unassigned) [Example 93, (-)-(trans)-N-[[2-[2-Iodo-5-[3-(3-methoxyphenyl)propoxy]phenyl]cycloprop-1-yl)methyl] butanamide]: the IC50 lay within 5 to 40 nM.

Staying with this experiment, now noted: Table 6; displacement of 2[125I]-Iodomelatonin (100 pM), 37° C., 1 hour.
`COc1cccc([C@H]2[C@H](CNC(=O)C(C)C)C2(F)F)c1` (relative stereo) [Example 134, (trans)-N-[[3-(3-Methoxyphenyl)-2,2-difluoro--cycloprop-1-yl]methyl]-2-methylpropanamide] showed a 50% inhibitory concentration (IC50) of 40 to 250 nM.

`CCCC(=O)NCC[C@@H]1C[C@H]1c1cccc(OC)c1` (single isomer, unassigned) [Example 16, (-)-(trans)-N-[[2-(3-Methoxyphenyl)cyclopropyl]ethyl]butanamide] returned a 50% inhibitory concentration (IC50) of 250 to 600 nM.

Staying with this experiment, now noted: read-out: Binding affinity (IC50) at the human melatonin receptor; Table 5; displacement of 2[125I]-Iodomelatonin (100 pM), 37° C., 1 hour.
Turning to `[2H]C([2H])([2H])Oc1cccc([C@@H]2C[C@H]2CNC(=O)CCC)c1` (relative stereo) [Example 111, (trans)-N-[2-[(3-Trideuteromethoxyphenyl)cycloprop-1-yl]methyl] butanamide], the IC50 is under 5 nM.

In the next experiment the test system is rats.
Assay: not given
Conditions: exogenous administration; cited from earlier work.
`COc1ccc2[nH]cc(CCNC(C)=O)c2c1` [melatonin, N-acetyl-5-methoxytryptamine]: the “effect on circadian rhythms” value was “found to synchronize circadian rhythms in rats”.
